Among the data in ChEMBL document CHEMBL2029279, “Structure-activity relationships and molecular modeling of the N-(3-pivaloyloxy-2-benzylpropyl)-N'-[4-(methylsulfonylamino)benzyl] thiourea template for TRPV1 antagonism” (Bioorg Med Chem Lett, 2012) are Activity and Ki values, retold here.

In test [1] the target is Transient receptor potential cation channel subfamily V member 1 (Rattus norvegicus) (UniProt O35433). The test is described as follows: Agonist activity at rat TRPV1 expressed in CHO cells assessed as induction of 45Ca2+ uptake at 30 uM relative to capsaicin. Type of test: functional, cell-based.
Test [2] concerns the target T1, Transient receptor potential cation channel subfamily V member 1 (Rattus norvegicus, UniProt O35433). The experiment in a line: Displacement of [3H]RTX from rat TRPV1 expressed in CHO cells. Type of test: cell-based. Background: Loss of bound radioactivity is the signal in a displacement assay; it reports binding, not function.
For test [3], the target named is Transient receptor potential cation channel subfamily V member 1 (Rattus norvegicus) (UniProt O35433). The test is described as follows: Antagonist activity at rat TRPV1 expressed in CHO cells assessed as inhibition of 45Ca2+ uptake relative to control. In kind it is functional, cell-based. Further details: scale not given: the % may be the effect or the level left.

Test [4] deals with T1, Transient receptor potential cation channel subfamily V member 1. The experiment in a line: Antagonist activity at rat TRPV1 expressed in CHO cells assessed as inhibition of 45Ca2+ uptake. In kind it is functional, cell-based.

Activity calls are given as the source filed them. No cut-off for these calls is given here.

Chain of Transient receptor potential cation channel subfamily V member 1 (Rattus norvegicus) (O35433 whole entry): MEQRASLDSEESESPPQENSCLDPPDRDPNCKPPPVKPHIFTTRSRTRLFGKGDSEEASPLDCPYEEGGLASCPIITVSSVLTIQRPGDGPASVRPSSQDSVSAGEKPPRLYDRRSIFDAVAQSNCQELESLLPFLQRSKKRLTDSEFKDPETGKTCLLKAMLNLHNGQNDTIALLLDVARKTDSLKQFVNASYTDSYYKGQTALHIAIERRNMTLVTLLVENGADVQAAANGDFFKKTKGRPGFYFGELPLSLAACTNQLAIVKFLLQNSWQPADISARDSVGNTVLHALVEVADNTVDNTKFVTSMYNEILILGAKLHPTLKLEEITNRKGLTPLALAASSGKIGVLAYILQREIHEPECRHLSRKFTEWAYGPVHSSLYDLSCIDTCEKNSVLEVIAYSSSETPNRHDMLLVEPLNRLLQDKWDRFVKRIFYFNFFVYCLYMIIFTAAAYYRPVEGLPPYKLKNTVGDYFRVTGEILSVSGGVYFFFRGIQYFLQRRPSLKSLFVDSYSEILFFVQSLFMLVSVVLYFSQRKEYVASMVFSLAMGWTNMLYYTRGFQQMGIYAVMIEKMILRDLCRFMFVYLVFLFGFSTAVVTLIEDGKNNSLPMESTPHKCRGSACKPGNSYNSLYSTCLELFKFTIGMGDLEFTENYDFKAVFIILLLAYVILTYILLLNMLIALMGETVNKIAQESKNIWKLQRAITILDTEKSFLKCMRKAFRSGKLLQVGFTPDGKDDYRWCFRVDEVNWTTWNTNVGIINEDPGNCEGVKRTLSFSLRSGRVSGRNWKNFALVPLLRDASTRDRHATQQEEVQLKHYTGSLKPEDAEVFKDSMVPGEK
T1 sequence (O35433 whole entry): as above

Consider `Cc1ccc(CC(CN/C(S)=N/Cc2ccc(NS(C)(=O)=O)cc2)COC(=O)C(C)(C)C)cc1C` (stereo unspecified), for which the Activity in test [1] stood at 15%.

The Ki is the equilibrium dissociation constant of an inhibitor or competing ligand from its target. Compound `Cc1ccc(CC(COC(=O)C(C)(C)C)NC(=S)NCc2ccc(NS(C)(=O)=O)cc2)cc1C` (stereo unspecified) returned a Ki in test [2] of 580 nM. For the same compound, the Activity in test [3] worked out at 48%; in test [1], 19%.

With `Cc1ccc(CCC(COC(=O)C(C)(C)C)NC(=S)NCc2ccc(NS(C)(=O)=O)c(F)c2)cc1C` (stereo unspecified), the Ki in test [2] was found to be 120 nM; in test [4], 111 nM. The result in test [1] was inactive.

Consider `Cc1ccc(CCC(COC(=O)C(C)(C)C)NC(=S)NCc2ccc(NS(C)(=O)=O)cc2)cc1C` (stereo unspecified), for which the Ki came to 390 nM in test [2] and 33.7 nM in test [4]. For the same compound, the Activity in test [1] came out at 5%.

Turning to `CC(C)(C)C(=O)OCC(NC(=S)NCc1ccc(NS(C)(=O)=O)cc1)c1ccc(C(C)(C)C)cc1` (stereo unspecified), the figures for the inhibitory constant (Ki) in test [2] and in test [4] were 197 nM and 940 nM, respectively. The Activity in test [3] and in test [1] was 46% throughout.

In the case of `CC(C)(C)C(=O)OCC(C/N=C(\S)NCc1ccc(NS(C)(=O)=O)cc1)Cc1ccc(C(C)(C)C)cc1` (stereo unspecified), the Activity in test [1] turned out to be 40%.

With `Cc1ccc(CC(COC(=O)C(C)(C)C)NC(=S)NCc2ccc(NS(C)(=O)=O)c(F)c2)cc1C` (stereo unspecified), the inhibitory constant (Ki) in test [2] is 233 nM; in test [4], 650 nM. Moreover, in test [1], the result was inactive.

As to `CC(C)(C)C(=O)OCC(Cc1ccc(C(C)(C)C)cc1)NC(=S)NCc1ccc(NS(C)(=O)=O)cc1` (stereo unspecified), the affinity in test [2], expressed as Ki, was 416 nM. The figures for the Activity in test [3] and in test [1] were 31% and 8%, respectively.

In the case of `CC(C)(C)C(=O)OCC(CCc1ccc(C(C)(C)C)cc1)NC(=S)NCc1ccc(NS(C)(=O)=O)c(F)c1` (stereo unspecified), the Ki in test [2] was determined as 190 nM; in test [4] it was 152 nM. The outcome in test [1] was inactive.

As for `CC(C)(C)C(=O)OCC(CNC(=S)NCc1ccc(NS(C)(=O)=O)c(F)c1)c1ccc(C(C)(C)C)cc1` (stereo unspecified), the Ki in test [2] stood at 69 nM; in test [4] it was 116 nM. For the same compound, the outcome in test [1] was inactive.

For the compound `CC(C)(C)C(=O)OCC(Cc1ccc(C(C)(C)C)cc1)NC(=S)NCc1ccc(NS(C)(=O)=O)c(F)c1` (stereo unspecified), the inhibition constant (Ki) is 115 nM in test [2] and 179 nM in test [4]. Further, the result in test [1] was inactive.

On to `CC(C)(C)C(=O)OCC(CCc1ccc(C(C)(C)C)cc1)NC(=S)NCc1ccc(NS(C)(=O)=O)cc1` (stereo unspecified), for which the Ki came out at 366 nM in test [2] and 286 nM in test [4]. In test [1], the result was inactive.

Turning to `Cc1ccc(CC(CNC(=S)NCc2ccc(NS(C)(=O)=O)c(F)c2)COC(=O)C(C)(C)C)cc1C` (stereo unspecified), in test [1], the result was inactive.

Regarding `CC(C)(C)C(=O)OCC(CNC(=S)NCc1ccc(NS(C)(=O)=O)cc1)c1ccc(C(C)(C)C)cc1` (stereo unspecified), the inhibition constant (Ki) came out at 143 nM in test [2] and 91 nM in test [4]. Also, the outcome in test [1] was inactive.

In the case of `CC(C)(C)C(=O)OCC(NC(=S)NCc1ccc(NS(C)(=O)=O)c(F)c1)c1ccc(C(C)(C)C)cc1` (stereo unspecified), the Ki in test [2] turned out to be 244 nM; in test [4], 213 nM. The Activity came to 72% in test [3] and 35% in test [1].
